Read-outs that look alike come from different tables or passages of the source.
Assay: Balb/C mouse pharmacokinetics (plasma, colon, ileum)
Assay type: in vivo
Settings: male, po, Balb/C mice, p.o. 5 mg/kg; for Cmax: read-out: Blood concentration Cmax; for AUC(0-t): read-out: Curve area AUC0-t; for AUC(0-inf): read-out: Curve area AUC0-∞; for half-life: read-out: Half life period t1/2 (converted); for MRT: read-out: Mean detention time MRT; for Tmax: read-out: Time to peak tmax
Text: Balb/C mouse was used as the test animal, the pharmacokinetic behavior in mice (plasma and colon, ileum tissue) was studied after oral administering the embodiment 1, embodiment 60, embodiment 169, embodiment 170, embodiment 171, embodiment 179, embodiment 191, embodiment 213, embodiment 214, embodiment 237, embodiment 238, embodiment 244, embodiment 246, embodiment 247, embodiment 257, embodiment 260, embodiment 262, embodiment 263, embodiment 267, embodiment 277, embodiment 278, embodiment 279, embodiment 288, embodiment 295, embodiment 299 and embodiment 301 at a dose of 5 mg/kg. After analyzing the drug concentration in the colon and ileum, the ratio of the drug concentration in the colon to that in ileum, and the ratio of the drug concentration in the colon to that in the plasma, the compounds with excellent PK were selected for further research.
12 Balb/C mice in each group, male, Shanghai Jiesjie Experimental Animal Co., Ltd., animal production license number (SCXK (Shanghai) 2013-0006 N0.311620400001794).
12 Balb/C mice in each group, male; p.o. after one night fast; the dose was 5 mg/kg; the administration volume was 10 mL/kg.
At 0, 0.5, 1, 2, 3, 5 and 7 hours before and after the administration, the mice were executed by CO2 and 0.2 mL of blood was collected from the heart, placed in an EDTA-K2 test tube, and centrifuged at 6000 rpm at 4° C. for 6 minutes to separate the plasma, which was then stored at −80° C. The ileum was taken close to the cecum end with a length of about 4-5 cm, and the colon was also taken close to the cecum end with a length of about 2-3 cm, weighed and placed in a 2 mL centrifuge tube, then stored at −80° C.
1) 40 uL of plasma sample was precipitated by adding 160 uL of acetonitrile, mixed and centrifuged at 3500×g for 5-20 minutes.
2) 30 μL of plasma and intestinal homogenate sample were precipitated by adding 90 of acetonitrile containing internal standard (100 ng/mL), mixed and centrifuged at 13000 rpm for 8 minutes.
3) 70 μL of the supernatant solution after treatment was collected and 70 μL of water was added thereto, vortexed and mixed for 10 minutes, and then 20 μL was collected to analyze the concentration of the test compound by LC/MS/MS. LC/MS/MS analysis instrument: AB Sciex API 4000 Qtrap.
Liquid phase conditions: Shimadzu LC-20AD Pump
Chromatographic column: Agilent ZORBAX XDB-C18 (50×2.1 mm, 3.5 μm) mobile phase: 0.1% formic acid aqueous solution as A solution, acetonitrile as B solution
Elution time: 0-4.0 minutes, the eluent is as follows:
The main pharmacokinetic parameters were calculated with WinNonlin 6.1, and the results of mouse pharmacokinetic experiments are shown in Table 3:
NA refers to none detected or not being tested (the detection limit of blood concentration was 1 ng/mL, when the Cmax in the blood test is NA, then NA in the blood test index refers to none detected; when the Cmax in the blood test is higher than the quantitative limit 1 ng/mL, then NA in the blood test index refers to not being tested; NA in the tissues (colon and ileum) refers to not being tested).

Compound	Cmax (plasma, blood) [ng/mL]	AUC(0-t) (plasma, blood) [ng·h/mL]	AUC(0-inf) (plasma, blood) [ng·h/mL]	half-life (plasma, blood) [h]	MRT (plasma, blood) [h]	Tmax (plasma, blood) [h]	Cmax (colon) [ng/mL]	AUC(0-t) (colon) [ng·h/mL]	MRT (colon) [h]	Tmax (colon) [h]	Cmax (ileum) [ng/mL]	AUC(0-t) (ileum) [ng·h/mL]	AUC(0-inf) (ileum) [ng·h/mL]	half-life (ileum) [h]	MRT (ileum) [h]	Tmax (ileum) [h]	AUC(0-inf) (colon) [ng·h/mL]	half-life (colon) [h]
Cc1cnc(Nc2cc3ncccc3c(N[C@@H]3C[C@H]4CC[C@@H](C3)N4CCC#N)n2)s1 [Embodiment 1, 3-((3-exo)-3-((7-((5-methylthioazol-2-yl)amino)-1,6-diazanaphthalen-5-yl)amino)-8-azabicyclo[3.2.1]oct-8-yl)propionitrile]	25.6	58.1	61.5	1.75	2.03	0.5	2720	8320	3.68	3	27100	90500	93700	1.08	2.84	3		
Cc1cc(Nc2nc(N[C@@H]3C[C@H]4CC[C@@H](C3)N4CCC#N)nc3ccsc23)n[nH]1 [Embodiment 60, 3-((3-exo)-3-((4-((5-methyl-1H-pyrazol-3-yl)amino)thieno[3,2-d]pyrimidin-2-yl)amino)-8-azabicyclo[3.2.1]oct-8-yl)propionitrile]	10.3	31.1	32.9	1.41	2.58	2	2310	9130	3.83	5	26100	98000	103000	1.26	2.49	1		
COc1ccc2c(Nc3cc(C)[nH]n3)nc(N[C@@H]3C[C@H]4CC[C@@H](C3)N4CCC#N)nc2c1 [Embodiment 169, 3-((3-exo)-3-((7-methoxyl-4-((5-methyl-1H-pyrazol-3-yl)amino)quinazolin-2-yl)amino)-8-azabicyclo[3.2.1]oct-8-yl)propionitrile]	2.21	3.04			1.08	0.5	9010	23200	2.29	5	23300	68900			4.64	1		
Cc1cc(Nc2nc(N[C@@H]3C[C@H]4CC[C@@H](C3)N4CCC#N)nc3cc(Br)ccc23)n[nH]1 [Embodiment 170, 3-((3-exo)-3-((7-bromine-4-((5-methyl-1H-pyrazol-3-yl)amino)quinazolin-2-yl)amino)-8-azabicyclo[3.2.1]oct-8-yl)propionitrile]	16	36.7			4.13	7	4320	13000	3.36	3	49900	118000	172000	5.48	2.19	1		
Cc1cc(Nc2nc(N[C@@H]3C[C@H]4CC[C@@H](C3)N4CCC#N)nc3cc(Cl)ccc23)n[nH]1 [Embodiment 171, 3-((3-exo)-3-((7-chloro-4-((5-methyl-1H-pyrazol-3-yl)amino)quinazolin-2-yl)amino)-8-azabicyclo[3.2.1]oct-8-yl)propionitrile]	8.91	23.4	26.7	1.93	3.05	2	438	2010	4.24	3	17000	79800			3.35	3		
Cc1cc(Nc2nc(N[C@@H]3C[C@H]4CC[C@@H](C3)N4S(=O)(=O)N3CC(C#N)C3)nc3ccccc23)n[nH]1 [Embodiment 213, 1-(((3-exo)-3-((4-((5-methyl-1H-pyrazol-3-yl)amino)quinazolin-2-yl)amino)-8-azabicyclo[3.2.1]oct-8-yl)sulfonyl)azetindin-3-formonitrile]	9.69	7.37			2.66	3	1750	4930	4.92	5	321	1240			4.26	5		
Cc1cc(Nc2nc(N[C@@H]3C[C@H]4CC[C@@H](C3)N4S(=O)(=O)N3CC(C#N)C3)nc3cc(Cl)ccc23)n[nH]1 [Embodiment 214]	1.6	3.59			1.82	3	5590	19500	4.4	5	24800	49300	49500	0.79	1.52	1		
Cc1cc(Nc2nc(N[C@@H]3C[C@H]4CC[C@@H](C3)N4S(=O)(=O)N3CC(C#N)C3)nc3sccc23)n[nH]1 [Embodiment 237, 1-(((3-exo)-3-((4-((5-methyl-1H-pyrazol-3-yl)amino)thieno[2,3-d]pyrimidin-2-yl)amino)-8-azabicyclo[3.2.1]oct-8-yl)sulfonyl)azetindin-3-formonitrile]	7.12	11			1.73	2	2210	6460	3.43	3	4140	15300	15400	0.55	2.43	3	7240	1.52
Cc1cc(Nc2nc(N[C@@H]3C[C@H]4CCC[C@@H](C3)N4S(=O)(=O)N3CC(C#N)C3)nc3sccc23)n[nH]1 [Embodiment 238]	12.7	19.6			1.47	1	1320	5270	4.16	3	21000	36600	36600	0.58	1.29	1	7380	2.89
Cc1cc(Nc2nc(N[C@@H]3C[C@H]4CCC[C@@H](C3)N4C(=O)CN3CCOCC3)nc3sccc23)n[nH]1 [Embodiment 246, 1-((3-exo)-3-((4-((5-methyl-1H-pyrazol-3-yl)amino)thieno[2,3-d]pyrimidin-2-yl)amino)-9-azabicyclo[3.3.1]non-9-yl)-2-morpholinoethane-1-one]	5.56	4.76			1.46	2	3260	13800	4.79	7	16800	27900	28400	1.81	1.28	1		

Source: patent US20230043863A1, “HETEROAROMATIC DERIVATIVES FOR USE AS REGULATOR, PREPARATION METHOD THEREFOR AND USE THEREOF” (JIANGSU HANSOH PHARMACEUTICAL GROUP CO., LTD., priority 2018, published 2023)
